The values below come from patent publication US8895733B2 (Novartis AG, priority 2010, dated 2014).

The target in one assay is T1, Nav 1.7 (Homo sapiens, UniProt Q15858).
T1 construct: expressed in transfected cells
T1 sequence (Q15858 whole entry): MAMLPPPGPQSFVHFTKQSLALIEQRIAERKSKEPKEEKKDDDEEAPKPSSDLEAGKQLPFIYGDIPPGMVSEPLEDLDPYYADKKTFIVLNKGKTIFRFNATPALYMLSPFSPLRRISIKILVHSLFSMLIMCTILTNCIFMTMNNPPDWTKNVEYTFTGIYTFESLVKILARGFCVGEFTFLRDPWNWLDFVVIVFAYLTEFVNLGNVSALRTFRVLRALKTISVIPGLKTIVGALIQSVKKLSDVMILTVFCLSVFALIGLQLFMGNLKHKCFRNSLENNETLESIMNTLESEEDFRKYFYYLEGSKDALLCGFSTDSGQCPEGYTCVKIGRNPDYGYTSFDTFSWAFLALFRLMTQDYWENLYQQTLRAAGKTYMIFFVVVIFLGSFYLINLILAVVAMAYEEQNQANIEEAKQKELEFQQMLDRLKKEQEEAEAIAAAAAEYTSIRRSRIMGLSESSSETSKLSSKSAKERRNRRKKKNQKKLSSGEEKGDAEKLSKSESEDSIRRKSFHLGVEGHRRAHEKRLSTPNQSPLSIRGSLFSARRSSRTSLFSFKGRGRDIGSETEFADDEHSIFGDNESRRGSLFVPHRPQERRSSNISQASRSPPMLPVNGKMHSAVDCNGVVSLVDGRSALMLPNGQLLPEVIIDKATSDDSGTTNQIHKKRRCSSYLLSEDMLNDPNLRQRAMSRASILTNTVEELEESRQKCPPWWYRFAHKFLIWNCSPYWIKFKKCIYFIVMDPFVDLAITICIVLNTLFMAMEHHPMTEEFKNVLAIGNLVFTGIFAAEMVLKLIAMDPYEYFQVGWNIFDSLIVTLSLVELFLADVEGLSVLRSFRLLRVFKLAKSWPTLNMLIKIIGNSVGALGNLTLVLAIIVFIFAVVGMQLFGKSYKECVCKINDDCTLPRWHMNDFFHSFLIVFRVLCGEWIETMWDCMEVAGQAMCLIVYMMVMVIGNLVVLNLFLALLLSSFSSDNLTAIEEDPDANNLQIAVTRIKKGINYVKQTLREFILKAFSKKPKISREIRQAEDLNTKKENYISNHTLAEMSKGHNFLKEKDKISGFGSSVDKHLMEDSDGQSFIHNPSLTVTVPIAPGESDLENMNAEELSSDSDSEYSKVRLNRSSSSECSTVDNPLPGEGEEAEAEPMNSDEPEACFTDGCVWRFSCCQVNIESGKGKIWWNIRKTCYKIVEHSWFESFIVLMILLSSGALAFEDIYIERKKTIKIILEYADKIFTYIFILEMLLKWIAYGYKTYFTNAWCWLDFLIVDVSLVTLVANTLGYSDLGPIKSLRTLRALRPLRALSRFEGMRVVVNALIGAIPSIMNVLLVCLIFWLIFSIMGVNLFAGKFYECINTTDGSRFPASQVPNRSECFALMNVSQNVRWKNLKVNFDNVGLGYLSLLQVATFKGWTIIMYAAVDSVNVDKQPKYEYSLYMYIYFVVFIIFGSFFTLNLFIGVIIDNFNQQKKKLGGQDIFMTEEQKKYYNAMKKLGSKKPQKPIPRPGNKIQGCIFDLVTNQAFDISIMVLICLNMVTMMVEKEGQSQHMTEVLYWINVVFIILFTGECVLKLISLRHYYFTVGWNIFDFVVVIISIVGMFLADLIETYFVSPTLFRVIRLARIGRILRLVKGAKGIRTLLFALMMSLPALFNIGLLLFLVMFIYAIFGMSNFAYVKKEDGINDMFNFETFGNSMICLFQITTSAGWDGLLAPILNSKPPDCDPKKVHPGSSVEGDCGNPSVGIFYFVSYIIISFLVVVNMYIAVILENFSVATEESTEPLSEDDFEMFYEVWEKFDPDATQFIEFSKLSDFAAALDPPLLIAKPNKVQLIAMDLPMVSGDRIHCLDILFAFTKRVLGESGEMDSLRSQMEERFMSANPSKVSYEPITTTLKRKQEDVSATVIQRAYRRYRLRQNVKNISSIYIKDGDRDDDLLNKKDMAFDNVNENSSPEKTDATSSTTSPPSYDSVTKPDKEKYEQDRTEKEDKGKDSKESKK
As to the kind of experiment: Whole-cell voltage clamp electrophysiology, manual patch clamp (marker b in Table of Examples). It counts as cell-based. The settings on record: 10 μM; marker b: Manual patch clamp data. The source says:
a.IonWork Quattro data, b=Manual patch clamp data, c=Automated patch clamp data M=Method
Whole-Cell Voltage Clamp Electrophysiology Assay
Patch-clamp electrophysiology is considered the gold standard technique for investigation of ion channel function and pharmacology. Using this method, sodium channel currents can be measured in cells, which stably (or transiently) express the sodium channel subtype of interest. Application of compounds during such experiments provides a functional measure of the activity and potency of compounds affecting the ion channel of interest.
Electrophysiological studies can also be performed using the whole cell configuration of the standard manual patch clamp technique as described in the literature (e.g. Pflugers Arch., 1981, 391(2), 85-100). In this assay, cells that express the voltage-gated sodium channel protein of interest are exposed to the drugs by conventional microperfusion systems, or by a home-built perfusion system. A suitable voltage stimulus protocol is used to activate the voltage-gated sodium channels.
A suitable voltage stimulus protocol is used to activate voltage-gated sodium channel proteins of interest. A typical stimulus protocol may consist of sweeps of sequential voltage pulses starting from a holding potential (i.e. −65 mV), to a more positive and depolarising test pulse potential (i.e. −10 mV) and finally to a more negative and hyperpolarising potential (i.e. −100 mV). According to the biophysics of the voltage-gated ion channel of interest and interest in channel configuration the voltages and durations of the pulses as well as the overall frequency of sweeps applied might vary. Accordingly, a stimulus protocol was designed to assess compounds due to their potential to block NaV1.7 channels primarily in inactivated state. Selectivity over other voltage-gated sodium channel members was assessed by protocols that reflect the native function of the channels (i.e. heart rate or firing of neurons).
Electrophysiological studies can also be performed using the whole cell configuration of the standard manual patch clamp technique as described in the literature (e.g. Pflugers Arch., 1981, 391(2), 85-100). In this assay, cells that express the human voltage-gated sodium channel protein of interest are exposed to the drugs by conventional microperfusion systems, or by a home-built perfusion system. A suitable voltage stimulus protocol is used to activate the voltage-gated sodium channels. A suitable voltage stimulus protocol may consist of sequential voltage pulses from a holding potential, each first hyperpolarizing the cell, then depolarizing the channels for a brief period. A particularly suitable holding potential may be a voltage allowing a fraction of channels to remain in an inactivated state, like −60 mV. A suitable hyperpolarizing voltage and duration may be −120 mV for 100 ms, and depolarization voltage and duration may be −20 mV for 25 ms, and a suitable frequency of pulses may be 0.1 Hz, but may also have other parameters. Accordingly, a stimulus protocol was designed to assess compounds due to their potential to block NaV1.7 channels primarily in inactivated state. Selectivity over other voltage-gated sodium channel members was assessed by protocols that reflect the native function of the channels (i.e. heart rate or firing of neurons).
A general note: The patch-clamp technique gives a direct electrical read-out from membranes.
On to `CN(c1ccccc1)c1nc(N)nc(-c2noc(-c3ccoc3)n2)n1` [Example 37, 6-(5-Furan-3-yl-[1,2,4]oxadiazol-3-yl)-N-methyl-N-phenyl-[1,3,5]triazine-2,4-diamine], for which the “Nav 1.7 activity, % at 10 μM” value is reported as 50% (10 μM)^b.

Still in this assay, the particulars now being: marker b = Manual patch clamp data; read-out: Nav 1.7 activity.
As for `CN(c1ccccc1)c1nc(N)nc(-c2noc(-c3ccc([S+]([O-])CC(F)(F)F)nc3)n2)n1` (stereo not shown) [Example 320, 2-N-methyl-2-N-phenyl-6-(5-{6-[(2,2,2-trifluoroethane)sulfinyl]pyridin-3-yl}-1,2,4-oxadiazol-3-yl)-1,3,5-triazine-2,4-diamine], the IC50 is 276 nM. On the same count and under the same terms, to `CN(c1ccccc1)c1nc(N)nc(-c2noc(C(=O)N3CCC(OCC(F)(F)F)CC3)n2)n1` [Example 262, 2-N-methyl-2-N-phenyl-6-(5-{[4-(2,2,2-trifluoroethoxy)piperidin-1-yl]carbonyl}-1,2,4-oxadiazol-3-yl)-1,3,5-triazine-2,4-diamine] belongs 400 nM.

For the compound `CN(c1ccccc1)c1nc(N)nc(-c2noc(N3CCC(OCC(F)(F)F)CC3)n2)n1` [Example 335, 2-N-methyl-2-N-phenyl-6-{5-[4-(2,2,2-trifluoroethoxy)piperidin-1-yl]-1,2,4-oxadiazol-3-yl}-1,3,5-triazine-2,4-diamine], the IC50 turned out to be 701 nM. In the case of `CN(c1ccccc1)c1nc(N)nc(-c2noc(N3CC(Oc4ccccc4)C3)n2)n1` [Example 489, 2-N-methyl-6-[5-(3-phenoxyazetidin-1-yl)-1,2,4-oxadiazol-3-yl]-2-N-phenyl-1,3,5-triazine-2,4-diamine], the IC50 was 127 nM. The same measure, in the same setting: for `Cc1csc(-c2nc(-c3nc(N)nc(N(C)c4ccccc4)n3)no2)n1` [Example 341, 2-N-methyl-6-[5-(4-methyl-1,3-thiazol-2-yl)-1,2,4-oxadiazol-3-yl]-2-N-phenyl-1,3,5-triazine-2,4-diamine] the value was 1490 nM; for `CN(c1ccccc1)c1nc(N)nc(-c2noc(C3CCN(Cc4ccccc4)C3)n2)n1` (stereo not shown) [Example 207, 6-[5-(1-benzylpyrrolidin-3-yl)-1,2,4-oxadiazol-3-yl]-2-N-methyl-2-N-phenyl-1,3,5-triazine-2,4-diamine], 97 nM. As for `CN(c1ccccc1)c1nc(N)nc(-c2noc(N3CCC(COCC4CC4)CC3)n2)n1` [Example 216, 6-(5-{4-[(Cyclopropylmethoxy)methyl]piperidin-1-yl}-1,2,4-oxadiazol-3-yl)-2-N-methyl-2-N-phenyl-1,3,5-triazine-2,4-diamine], the IC50 came to 283 nM. On the same count and under the same terms, for `CN(c1ccccc1)c1nc(N)nc(-c2noc(-c3ccnc(OCC(F)(F)F)c3)n2)n1` [Example 472, 2-N-methyl-2-N-phenyl-6-{5-[2-(2,2,2-trifluoroethoxy)pyridin-4-yl]-1,2,4-oxadiazol-3-yl}-1,3,5-triazine-2,4-diamine] the value was 900 nM.

The assay is the same for the next values; noted with them: marker b: Manual patch clamp data; read-out: Nav 1.7 activity.
For `CN(c1ccccc1)c1nc(N)nc(-c2noc(-c3cncc(N)c3)n2)n1` [Example 54, 6-[5-(5-Amino-pyridin-3-yl)-[1,2,4]oxadiazol-3-yl]-N-methyl-N-phenyl-[1,3,5]triazine-2,4-diamine], the IC50 is 2220 nM. Still for that read-out and setting: for `COc1ccc(-c2nc(-c3nc(N)nc(N(C)c4ccccc4)n3)no2)cc1` [Example 26, 6-[5-(4-Methoxy-phenyl)-[1,2,4]oxadiazol-3-yl]-N-methyl-N-phenyl-[1,3,5]triazine-2,4-diamine] the value was 148 nM; for `CN(c1ccc(Cl)cc1)c1nc(N)nc(-c2noc(-c3ccco3)n2)n1` [Example 8, 6-(5-Furan-2-yl-[1,2,4]oxadiazol-3-yl)-N-methyl-N-(4-chlorophenyl)-[1,3,5]triazine-2,4-diamine], 339 nM. Still for that read-out and setting: to `COCCN(c1ccccc1)c1nc(N)nc(-c2noc(-c3ccc(OCC(F)(F)F)nc3)n2)n1` [Example 156, 2-N-(2-Methoxyethyl)-2-N-phenyl-6-{5-[6-(2,2,2-trifluoroethoxy)pyridin-3-yl]-1,2,4-oxadiazol-3-yl}-1,3,5-triazine-2,4-diamine] belongs 65 nM. On the same count and under the same terms, for `CN(c1nc(N)nc(-c2noc(-c3ccco3)n2)n1)c1cc(F)ccc1F` [Example 104, N-(2,5-Difluoro-phenyl)-6-(5-furan-2-yl-[1,2,4]oxadiazol-3-yl)-N-methyl-[1,3,5]triazine-2,4-diamine] the value was 93 nM; for `CN(c1ccccc1)c1nc(N)nc(-c2noc(-c3ccccc3Cl)n2)n1` [Example 23, 6-[5-(2-Chloro-phenyl)-[1,2,4]oxadiazol-3-yl]-N-methyl-N-phenyl-[1,3,5]triazine-2,4-diamine], 106 nM; for `CCN(c1ccccc1)c1nc(N)nc(-c2noc(-c3nccs3)n2)n1` [Example 38, N-Ethyl-N-phenyl-6-(5-thiazol-2-yl-[1,2,4]oxadiazol-3-yl)-[1,3,5]triazine-2,4-diamine], 1120 nM. In the case of `CN(c1ccccc1)c1nc(N)nc(-c2noc(-c3ccccn3)n2)n1` [Example 9, N-Methyl-N-phenyl-6-(5-pyridin-2-yl-[1,2,4]oxadiazol-3-yl)-[1,3,5]triazine-2,4-diamine], the IC50 stood at 769 nM. On the same count and under the same terms, for `Nc1nc(Nc2cccc(F)c2F)nc(-c2noc(-c3ccco3)n2)n1` [Example 113, N-(2,3-Difluoro-phenyl)-6-(5-furan-2-yl-[1,2,4]oxadiazol-3-yl)-[1,3,5]triazine-2,4-diamine] the value was 118 nM. The same measure, in the same setting: to `CN(c1ccccc1)c1nc(N)nc(-c2noc(C3CCOC3)n2)n1` (stereo not shown) [Example 48] belongs 4630 nM; to `Cc1cccc(Nc2nc(N)nc(-c3noc(-c4ccco4)n3)n2)c1F` [Example 112, N-(2-Fluoro-3-methyl-phenyl)-6-(5-furan-2-yl-[1,2,4]oxadiazol-3-yl)-[1,3,5]triazine-2,4-diamine], 87 nM; to `COc1cccc(N(C)c2nc(N)nc(-c3noc(-c4ccco4)n3)n2)c1` [Example 5, 6-(5-Furan-2-yl-[1,2,4]oxadiazol-3-yl)-N-methyl-N-(3-methoxyphenyl)-[1,3,5]triazine-2,4-diamine], 791 nM. Regarding `CN(c1nc(N)nc(-c2noc(-c3ccco3)n2)n1)c1ccccc1F` [Example 14, N-(2-Fluoro-phenyl)-6-(5-furan-2-yl-[1,2,4]oxadiazol-3-yl)-N-methyl-[1,3,5]triazine-2,4-diamine], the IC50 is 198 nM.

With `COC(=O)c1ccc(-c2nc(-c3nc(N)nc(N(C)c4ccccc4)n3)no2)s1` [Example 82, 5-{3-[4-amino-6-(methyl-phenyl-amino)-[1,3,5]triazin-2-yl]-[1,2,4]oxadiazol-5-yl}-thiophene-2-carboxylic acid methyl ester], the IC50 is 195 nM. For `COc1ccc(N(C)c2nc(N)nc(-c3noc(-c4ccco4)n3)n2)cc1` [Example 6, 6-(5-Furan-2-yl-[1,2,4]oxadiazol-3-yl)-N-methyl-N-(4-methoxyphenyl)-[1,3,5]triazine-2,4-diamine], the IC50 was found to be 1940 nM. With `Cc1ccc(F)c(N(C)c2nc(N)nc(-c3noc(-c4ccco4)n3)n2)c1` [Example 105, N-(2-Fluoro-5-methyl-phenyl)-6-(5-furan-2-yl-[1,2,4]oxadiazol-3-yl)-N-methyl-[1,3,5]triazine-2,4-diamine], the IC50 stood at 59 nM. Same read-out and setting: to `CN(c1ccccc1)c1nc(N)nc(-c2noc(N3CCCCC3)n2)n1` [Example 46, N-Methyl-N-phenyl-6-(5-piperidin-1-yl-[1,2,4]oxadiazol-3-yl)-[1,3,5]triazine-2,4-diamine] belongs 511 nM.

The target of a further assay is T1, Nav 1.7. Briefly: Whole-cell voltage clamp electrophysiology, automated patch clamp (marker c in Table of Examples). It counts as cell-based. As to conditions: marker c = Automated patch clamp data; read-out: Nav 1.7 activity. Put shortly:
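Human NaV1.7 currents were recorded by whole-cell automated patch clamp, on IonWorks Quattro or another automated platform, typically in perforated-patch configuration. The stimulus protocol was designed to probe block mainly of the inactivated state, with a typical sweep stepping from about −65 mV holding to −10 mV, then −100 mV.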
With `CC(C)Oc1cccnc1-c1nc(-c2nc(N)nc(N(C)c3ccccc3)n2)no1` [Example 484, 2-N-methyl-2-N-phenyl-6-{5-[3-(propan-2-yloxy)pyridin-2-yl]-1,2,4-oxadiazol-3-yl}-1,3,5-triazine-2,4-diamine], the IC50 was 695 nM.

The same assay, now with this note: marker c: Automated patch clamp data; read-out: Nav 1.7 activity.
On to `CN(c1ccccc1)c1nc(N)nc(-c2noc(N3CCOCC3)n2)n1` [Example 45, N-Methyl-6-(5-morpholin-4-yl-[1,2,4]oxadiazol-3-yl)-N-phenyl-[1,3,5]triazine-2,4-diamine], for which the IC50 came out at 3520 nM.
